This is an account of results in patent publication US9759709B1, “Devices and methods to monitor HIV-infection in presence of substance of abuse and/or therapeutic agent” (THE FLORIDA INTERNATIONAL UNIVERSITY BOARD OF TRUSTEES, priority 2016, dated 2017).

Broadly, the cell viability is a per cent measure of how many cells are alive, often set against a control.

Where a name gives a salt, the structure may show the parent alone.

What all share (assay type): cell-based
The test system of series [1] is human astrocytes (HA). Nature of the series: MTT cell viability assay. The settings on record: HA treated with Coc (1 μM), 7 days. As for the experimental part: The MTT cell viability assay was examined using a modified assay method as described by Rao et al (Kurapati et al. 2012). After 7 days of HIV-infection and/or treatment with an optimum concentration of Coc (1 μM), 6-well plates were given media change with 1 mL of medium. Then, 100 μL of MTT (100 mg MTT/20 ml PBS) was added to each well and the wells were incubated for 3 h at 37° C. Further, one volume of stop mix solution was added to each well. The plates were then rocked for about 2 h and centrifuged.
The optical density of the solubilized formazan was determined spectrophotometrically measuring the absorbance at 550 nm after transferring into the 96-well plate. The optical density of formazan in each well is directly proportional to the cell viability and utilized for calculations.
Considering cell viability as a major factor, HA toxicity was evaluated in terms of cell viability as a function of levels of HIV infection ranging from 10 ng/mL to 30 ng/mL using MTT assay.
For orientation: Tetrazolium dyes change colour on reduction, which living cells bring about.

The test system of series [2] is human astrocytes (HA). As to the kind of experiment: EIS measurement of charge transfer resistance (Rct) of HA grown on IDE-Au cultureware chip. As for the experimental part:
A cultureware chip (CC) comprising eight wells was procured from Applied Biophysics (#8WCP PET arrays) and used to grow HA for HIV infection and subsequent drug treatments. Each well (substrate area of 0.8 cm^2 and maximum volume of 600 μL) of the CC comprised a sensing substrate configured to have gold-based IDE (IDE-Au; surface area: 3.985 mm^2). In each well and on the sensing substrate, the IDE-Au array was useful to grow a large number of cells (e.g., approximately between 4000 and 8000) and designed in such a way to perform electrochemical measurements without fluctuation.
EIS was conducted in 400 μL of 5 mM PBS (pH 7.4) comprising 5 mM Fe (II)/Fe(III) as redox moieties using VMP3, a multi-channel potentiostat/galvanostats obtained from BioLogic Instruments. Each EIS measurement was made in sets of triplet and an average was used for analytical interpretation. Before processing the CC for cell culture, EIS measurement was made on […] each well. […] The cyclic voltammetry (CV) studies were also performed on CC using identical experimental conditions to validate results obtained using EIS.
A portion of the Nyquist plot of cells grown on IDE-Au takes on a semicircle shape at higher frequency that corresponds to the electron-transfer limited process. The […] of this semicircle represents the charge transfer resistance, Rct, of the system. The semicircle is followed by a linear portion of the curve (45° to the axes) corresponding to the diffusion-controlled electron transfer process (Kaushik et al. 2010).
For a biological system, the Rct value […] intra/extracellular cell properties, such as the electrical and physical properties of the HA. As a result, Rct was selected as the parameter for the assessment of HIV infection in HA and on treatments with Coc and drugs specific to both HIV and Coc. The EIS was performed on HA as a function of HIV infection doses which varies from 10 ng/mL to 30 ng/mL (FIG. 2A (b)).
Primary HA were grown in the eight-well CC plate at a concentration of approximately 8,000 cells and infected with different concentrations (ranging from 10 ng/mL to 30 ng/mL) of HIV-1 using a previously described protocol (Atluri et al. 2013; Eugenin and Berman 2007). Each well was used for a separate treatment.
After overnight infection, unabsorbed virus was washed away using PBS (pH 7.4), and the infected cells were cultured for 5 days in the presence or absence of Coc (1 μM). RA (2 μM) was added to the designated wells (specific to Coc) 2 h before each treatment involving Coc. The optimized dose of Coc selected for this study was 1 μM, which was based on our dose response study for cytotoxicity and HIV infectivity (Roy et al. 2015).
On the 5th day, 100 μg (100 μL of 1 mg/mL) of Tef was added to wells specific to HIV and incubated for 7 days in total. The dose of Tef was selected on the basis of its toxicity and efficacy as reported in our previous publication (Jayant et al. 2015).
To evaluate variations in HIV infection as a function of the Rct value (FIGS. 3A-3D) measured using EIS, an experiment was planned in 9 wells as described in FIGS. 3A-3D.

Series [3] deals with HIV-1Ba-L (clade B). Nature of the series: p24 antigen estimation by ELISA (level of HIV infection in HA). From the text:
Primary HA were purchased from ScienCell Research Laboratories (Carlsbad, Calif.; Cat. #1800-5) and grown in astrocyte medium purchased from ScienCell Laboratories (Cat. #1801) comprising 2% of fetal bovine serum (ScienCell Cat. #0010), astrocyte growth supplement (ScienCell Cat. #1852), and penicillin/streptomycin (ScienCell Cat. #0503). HIV-1Ba-L (clade B) (NIH AIDS Reagent Program Cat. #510) was obtained through AIDS Research and Reference Reagent Program, Division of AIDS, NIAID, NIH. The Cocaine hydrochloride-Sigma (Cat# C5776), rimcazole dihydrochloride-Tocris (1497, CAS#75859-03-9), and tenofovir disoproxil fumarate-Sigma (1643656; CAS #202138-50-9) were also obtained for this research.
Primary HA were grown in the eight-well CC plate at a concentration of approximately 8,000 cells and infected with different concentrations (ranging from 10 ng/mL to 30 ng/mL) of HIV-1 using a previously described protocol (Atluri et al. 2013; Eugenin and Berman 2007). Each well was used for a separate treatment. […]
450 μl of undiluted HA culture supernatant was mixed with 50 μL of lysing buffer. […] After incubation, 100 μL of stop solution was added to each well and the optical density of each well was read at 450 nm using a microplate reader (Yndart et al. 2015). […]

`COC(=O)[C@H]1[C@@H](OC(=O)c2ccccc2)C[C@@H]2CC[C@H]1N2C` [Coc, cocaine] showed a cell viability in series [1] of around 85%. Moreover, the Rct was found to be 21 KS in series [2] (HA+Coc (1 μM), normal HA 48) and 140 KS in series [2] (HA+HIV+Coc).
On to `C[C@@H]1CN(CCCn2c3ccccc3c3ccccc32)C[C@H](C)N1` [RA, rimcazole dihydrochloride], for which the “level of HIV infection (p24 antigen)” value in series [3] (HIV-infected HA with Coc and RA (2 μM) vs cells treated with HIV and Coc alone) was “not statistically significant”. Besides, the values for the Rct in series [2] (HA+Coc+RA (2 μM)) and in series [2] (HA+HIV+Coc+RA) were 34 KΩ and 105 KΩ, respectively.
`CC(C)OC(=O)OCOP(=O)(CO[C@H](C)Cn1cnc2c(N)ncnc21)OCOC(=O)OC(C)C.O=C(O)/C=C/C(=O)O` [Tef, tenofovir disoproxil fumarate]: in series [3] (HIV-infected HA treated with Tef (100 μg) vs HIV-infected cells alone), the “level of HIV infection (p24 antigen)” value is given as “significant reduction”. Also, the Rct worked out at 93 KS in series [2] (HA+HIV+Coc+Tef) and 150 KΩ in series [2] (HIV-infected HA (20 ng/mL) after Tef, HA+HIV without drug 210).
